Test results from patent publication US20150031761A1, “USE OF 5-AMINOLEVULINIC ACID AND DERIVATIVES IN A SOLID FORM FOR PHOTODYNAMIC TREATMENT AND DIAGNOSIS” (Photocure ASA, priority 2007, published 2015).

Test: Stress-study at 80° C. of HAL HCl with excipients, impurities by HPLC
Format: physicochemical
Design: key to level of impurity at relative retention time 0.8: **: An empty entry indicates no detectable levels
Conditions: 20 hours, relative to a pyrazine standard
Procedure: In order to get an indication of the stability of HAL in the presence of various excipients, a stress-study at 80° C. was performed. 100 mg HAL HCl+300 mg excipient (Poloxamer 188, Gelucire 44/14, Gelucire mixture (44/14:50/02=[…] w/w) and Miglyol 812 N) was mixed and the result after 20 hours was analysed by HPLC. The level of each impurity was calculated relative to a pyrazine standard.

SMILES: CCCCCCOC(=O)CCC(=O)CN.Cl [HAL- HCl, Hexyl 5-aminolevulinate hydrochloride]
- level of impurity Pyrazine: 1.77%
- level of impurity at relative retention time 0.8: **
- level of impurity at relative retention time 0.88: 0.46%
- level of impurity at relative retention time 1.37: 0.03%
- level of impurity at relative retention time 1.91: 0.35%
- level of impurity at relative retention time 2.06: 0.16%
